Test results published in ChEMBL document CHEMBL2177089, “Novel tetrahydropyrido[1,2-a]isoindolone derivatives (valmerins): potent cyclin-dependent kinase/glycogen synthase kinase 3 inhibitors with antiproliferative activities and antitumor effects in human tumor xenografts” (J Med Chem, 2012).
Active and inactive are the calls of the source. No cut-off for these calls is given here.

Columns and labels:
[1] = target: Cyclin-dependent kinase 5/CDK5 activator 1 (Homo sapiens, UniProt Q00535); assay: Inhibition of human recombinant CDK5/p25 using histone H1 as substrate and [gamma-33P]-ATP after 30 mins by scintillation counting; type: protein-complex assay
Chain of Cyclin-dependent kinase 5/CDK5 activator 1 (Q00535 whole entry): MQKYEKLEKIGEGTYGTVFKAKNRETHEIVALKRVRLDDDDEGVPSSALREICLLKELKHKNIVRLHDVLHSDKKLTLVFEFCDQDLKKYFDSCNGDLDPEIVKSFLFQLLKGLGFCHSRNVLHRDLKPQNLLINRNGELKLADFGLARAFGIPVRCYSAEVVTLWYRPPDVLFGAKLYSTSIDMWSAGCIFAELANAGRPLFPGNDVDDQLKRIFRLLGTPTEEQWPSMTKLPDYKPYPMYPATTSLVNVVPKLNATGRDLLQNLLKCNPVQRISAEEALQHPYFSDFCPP
Chain of Cyclin-dependent kinase 5/CDK5 activator 1 (Q15078 whole entry, further chain): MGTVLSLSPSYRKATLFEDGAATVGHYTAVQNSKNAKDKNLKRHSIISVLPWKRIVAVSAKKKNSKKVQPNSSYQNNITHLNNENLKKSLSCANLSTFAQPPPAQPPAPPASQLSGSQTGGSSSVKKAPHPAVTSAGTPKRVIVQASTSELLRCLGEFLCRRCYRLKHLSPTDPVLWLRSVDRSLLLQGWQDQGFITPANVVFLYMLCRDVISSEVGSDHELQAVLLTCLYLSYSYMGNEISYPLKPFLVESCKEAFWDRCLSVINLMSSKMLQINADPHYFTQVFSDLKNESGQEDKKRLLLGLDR

[2] = target: Glycogen synthase kinase-3 (Sus scrofa, UniProt B2LUN4+I6LNT8); assay: Inhibition of porcine brain GSK-3alpha/beta using YRRAAVPPSPSLSRHSSPHQpSEDEEE as substrate and [gamma-33P]-ATP after 30 mins by scintillation counting
[3] = target: Dual specificity tyrosine-phosphorylation-regulated kinase 1A (Homo sapiens, UniProt Q13627); assay: Inhibition of human recombinant GST-fused DYRK1A expressed in Escherichia coli using KKISGRLSPIMTEQ as substrate and [gamma-33P]-ATP after 30 mins by scintillation counting
NCI-H727 [4] = assay: cells; conditions: Homo sapiens, NCI-H727, 48 h
Description: Cytotoxicity against human NCI-H727 cells after 48 hrs

Huh-7 [5] = assay: cells; conditions: Homo sapiens, Huh-7, 48 h
Description: Cytotoxicity against human HuH7 cells after 48 hrs

HCT-116 [6] = assay: cells; conditions: Homo sapiens, HCT-116, 48 h
Description: Cytotoxicity against human HCT116 cells after 48 hrs

[7] = Cytotoxicity against human skin fibroblasts cells after 48 hrs; conditions: Fibroblast
MDA-MB-231 [8] = assay: cells; conditions: Homo sapiens, MDA-MB-231, 48 h
Description: Cytotoxicity against human MDA-MB-231 cells after 48 hrs

Caco-2 [9] = assay: cells; conditions: Homo sapiens, Caco-2, 48 h
Description: Cytotoxicity against human Caco2 cells after 48 hrs

PC-3 [10] = assay: cells; conditions: Homo sapiens, PC-3, 48 h
Description: Cytotoxicity against human PC3 cells after 48 hrs

[11] = Inhibition of porcine brain CK1delta/epsilon using RRKHAAIGpSAYSITA as substrate and [gamma-33P]-ATP after 30 mins by scintillation counting; parameters: species or system Sus scrofa
Mus musculus [12] = assay: Toxicity in NMRI mouse assessed as mortality at 1 to 10 mg/kg, ip qd for 2 weeks; type: organism-based; parameters: dose 1-10 mg/kg, route intraperitoneal; conditions: in vivo, 336 h
MDA-MB-231 [13] = assay: Cell cycle arrest in human MDA-MB-231 cells assessed as accumulation at G1 phase at 0.6 uM after 24 hrs; type: functional, cell-based
Huh-7 [14] = assay: Cell cycle arrest in human HuH7 cells assessed as accumulation at G1 phase at 0.6 uM after 24 hrs; type: functional, cell-based
HCT-116 [15] = assay: Antitumor activity against human HCT116 cells xenografted in nude NMRI mouse assessed as tumor reduction at 10 mg/kg, ip administered 3 times in a week for 4 weeks by whole-body bioluminescent imaging; type: functional; parameters: scale not given: the % may be the effect or the level left; conditions: route intraperitoneal
[16] = target: Cyclin-dependent kinase 1 (Homo sapiens, UniProt P06493); assay: Inhibition of CDK1
Chain of Cyclin-dependent kinase 1 (P06493 whole entry): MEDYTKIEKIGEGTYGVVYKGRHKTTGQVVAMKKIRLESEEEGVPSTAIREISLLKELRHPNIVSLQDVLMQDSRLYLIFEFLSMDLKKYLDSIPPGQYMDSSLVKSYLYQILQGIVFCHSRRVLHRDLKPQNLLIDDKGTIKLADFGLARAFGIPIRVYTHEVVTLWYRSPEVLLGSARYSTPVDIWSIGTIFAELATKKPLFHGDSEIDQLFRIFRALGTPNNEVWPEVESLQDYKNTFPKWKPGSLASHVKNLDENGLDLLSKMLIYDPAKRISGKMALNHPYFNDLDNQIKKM

Caco-2 [17] = assay: Cell cycle arrest in human Caco2 cells assessed as accumulation at G1 phase at 0.6 uM after 24 hrs; type: functional, cell-based
Mus musculus [18] = assay: Toxicity in NMRI mouse assessed as food consumption at 1 to 10 mg/kg, ip qd for 2 weeks; type: organism-based; parameters: dose 1-10 mg/kg, route intraperitoneal; conditions: in vivo, 336 h
NCI-H727 [19] = assay: Cell cycle arrest in human NCI-H727 cells assessed as accumulation at G1 phase at 0.6 uM after 24 hrs; type: functional, cell-based
PC-3 [20] = assay: Cell cycle arrest in human PC3 cells assessed as accumulation at G1 phase at 0.6 uM after 24 hrs; type: functional, cell-based
HCT-116 [21] = assay: Induction of apoptosis in human HCT116 cells assessed as activation of caspase-3 at 0.6 uM after 24 hrs; type: functional, cell-based
Mus musculus [22] = assay: Toxicity in NMRI mouse assessed as macroscopic examination of organs at 1 to 10 mg/kg, ip qd for 2 weeks; type: organism-based; parameters: dose 1-10 mg/kg, route intraperitoneal; conditions: in vivo, 336 h
HCT-116 [23] = assay: Antitumor activity against human HCT116 cells xenografted in nude NMRI mouse assessed as tumor reduction at 10 mg/kg, ip administered 3 times in a week for 4 weeks; type: functional; parameters: scale not given: the % may be the effect or the level left; conditions: route intraperitoneal
Mus musculus [24] = assay: Toxicity in NMRI mouse assessed as weight loss at 1 to 10 mg/kg, ip qd for 2 weeks; type: organism-based; parameters: dose 1-10 mg/kg, route intraperitoneal; conditions: in vivo, 336 h
Mus musculus [25] = assay: Toxicity in NMRI mouse assessed as blood formulation at 1 to 10 mg/kg, ip qd for 2 weeks; type: organism-based; parameters: dose 1-10 mg/kg, route intraperitoneal; conditions: in vivo, 336 h
HCT-116 [26] = assay: Cell cycle arrest in human HCT116 cells assessed as accumulation at G1 phase at 0.6 uM after 24 hrs; type: functional, cell-based
MDA-MB-231 [27] = assay: Cell cycle arrest in human MDA-MB-231 cells assessed as accumulation at G1 phase at 1 uM after 24 hrs; type: functional, cell-based
Huh-7 [28] = assay: Cell cycle arrest in human HuH7 cells assessed as accumulation at G1 phase at 1 uM after 24 hrs; type: functional, cell-based
PC-3 [29] = assay: Cell cycle arrest in human PC3 cells assessed as accumulation at G1 phase at 1 uM after 24 hrs; type: functional, cell-based
HCT-116 [30] = assay: Cell cycle arrest in human HCT116 cells assessed as accumulation at G1 phase at 1 uM after 24 hrs; type: functional, cell-based
HCT-116 [31] = assay: Induction of apoptosis in human HCT116 cells assessed as activation of caspase-3 at 1 uM after 24 hrs; type: functional, cell-based
NCI-H727 [32] = assay: Cell cycle arrest in human NCI-H727 cells assessed as accumulation at G1 phase at 1 uM after 24 hrs; type: functional, cell-based
Caco-2 [33] = assay: Cell cycle arrest in human Caco2 cells assessed as accumulation at G1 phase at 1 uM after 24 hrs; type: functional, cell-based

## O=C(Nc1cc(O)c2ccccc2n1)Nc1cccc2c1C1CCCCN1C2=O (stereo not given)
[1]
  IC50: 10000 nM
[2]
  IC50: 1200 nM
[3]
  IC50: 5600 nM

## O=C(Nc1ccc2cccc(O)c2n1)Nc1cccc2c1C1CCCCN1C2=O (stereo not given)
[1]
  IC50: 700 nM
[2]
  IC50: 150 nM
[3]
  IC50: > 10000 nM

## O=C(Nc1cc(Br)ccn1)Nc1cccc2c1C1CCCCN1C2=O (stereo not given)
NCI-H727 [4]
  IC50: 400 nM
Huh-7 [5]
  IC50: 5000 nM
HCT-116 [6]
  IC50: 100 nM
[1]
  IC50: 25 nM
[7]
  IC50: 500 nM
MDA-MB-231 [8]
  IC50: 500 nM
[2]
  IC50: 22 nM
Caco-2 [9]
  IC50: 100 nM
PC-3 [10]
  IC50: 100 nM
[3]
  IC50: 7600 nM
[11]
  IC50: 1300 nM

## O=C(Nc1cccc2c1C1CCCCN1C2=O)Nc1ncccc1O (stereo not given)
NCI-H727 [4]
  IC50: 800 nM
Huh-7 [5]
  IC50: 500 nM
HCT-116 [6]
  IC50: 1000 nM
[1]
  IC50: 37 nM
[7]
  IC50: 3000 nM
MDA-MB-231 [8]
  IC50: 2000 nM
[2]
  IC50: 51 nM
Caco-2 [9]
  IC50: 6000 nM
PC-3 [10]
  IC50: 400 nM
[3]
  IC50: 1800 nM
[11]
  IC50: 1500 nM

## O=C(Nc1csc(-c2ccncc2)n1)Nc1cccc2c1C1CCCCN1C2=O (stereo not given)
[2]
  IC50: 130 nM

## O=C(Nc1cccc(Br)n1)Nc1cccc2c1C1CCCCN1C2=O (stereo not given)
NCI-H727 [4]
  IC50: > 25000 nM
Huh-7 [5]
  IC50: > 25000 nM
HCT-116 [6]
  IC50: > 25000 nM
[7]
  IC50: > 25000 nM
MDA-MB-231 [8]
  IC50: > 25000 nM
[2]
  IC50: 43 nM
Caco-2 [9]
  IC50: > 25000 nM
PC-3 [10]
  IC50: > 25000 nM

## Cn1ccc(NC(=O)Nc2cccc3c2C2CCCCN2C3=O)n1 (stereo not given)
[2]
  IC50: 310 nM

## O=C(Nc1nc2ccccc2s1)Nc1cccc2c1C1CCCCN1C2=O (stereo not given)
[2]
  IC50: 3500 nM
[3]
  IC50: > 10000 nM

## O=C(Nc1cccc(N2CCCCC2)n1)Nc1cccc2c1C1CCCCN1C2=O (stereo not given)
[1]
  IC50: > 10000 nM
[2]
  IC50: 360 nM
[3]
  IC50: > 10000 nM
[11]
  IC50: > 10000 nM

## O=C(Nc1cccc2c1C1CCCCN1C2=O)Nc1nc(Cl)c(Cl)c(Cl)c1Cl (stereo not given)
[1]
  IC50: 10000 nM
[2]
  IC50: 4300 nM
[3]
  IC50: > 10000 nM

## O=C(Nc1ccc(Br)cn1)Nc1cccc2c1C1CCCCN1C2=O (stereo not given)
[2]
  IC50: 76 nM
[3]
  IC50: > 10000 nM

## Cc1cc(NC(=O)Nc2cccc3c2C2CCCCN2C3=O)no1 (stereo not given)
[2]
  IC50: 330 nM

## O=C(Nc1cccc(F)n1)Nc1cccc2c1C1CCCCN1C2=O (stereo not given)
NCI-H727 [4]
  IC50: 500 nM
Huh-7 [5]
  IC50: 120 nM
HCT-116 [6]
  IC50: 90 nM
[1]
  IC50: 90 nM
[7]
  IC50: 400 nM
MDA-MB-231 [8]
  IC50: 90 nM
[2]
  IC50: 26 nM
Caco-2 [9]
  IC50: 150 nM
PC-3 [10]
  IC50: 200 nM

## O=C(Nc1cc[nH]n1)Nc1cccc2c1C1CCCCN1C2=O (stereo not given)
[2]
  IC50: 470 nM

## O=C(Nc1ccccc1)Nc1cccc2c1C1CCCCN1C2=O (stereo not given)
[1]
  IC50: > 10000 nM
[2]
  IC50: > 10000 nM
[3]
  IC50: > 10000 nM

## O=C(Nc1ccccn1)Nc1cccc2c1C1CCCCN1C2=O (stereo not given)
Mus musculus [12]
  Activity: Non-toxic
MDA-MB-231 [13]
  Activity: Active
Huh-7 [14]
  Activity: Active
HCT-116 [15]
  Activity: 51%
[16]
  IC50: 75 nM
Caco-2 [17]
  Activity: Active
Mus musculus [18]
  Activity: Non-toxic
NCI-H727 [19]
  Activity: Active
PC-3 [20]
  Activity: Active
HCT-116 [21]
  Activity: Active
Mus musculus [22]
  Activity: Non-toxic
HCT-116 [23]
  Activity: 45.3%
Mus musculus [24]
  Activity: Non-toxic
Mus musculus [25]
  Activity: Non-toxic
HCT-116 [26]
  Activity: Active

## O=C(Nc1cccc2c1C1CCCCN1C2=O)Nc1ncc(F)cc1F (stereo not given)
[1]
  IC50: 260 nM
[2]
  IC50: 200 nM
[3]
  IC50: > 10000 nM
[11]
  IC50: > 10000 nM

## O=C(Nc1cscn1)Nc1cccc2c1C1CCCCN1C2=O (stereo not given)
[2]
  IC50: 760 nM

## O=C(Nc1ccc(O)cn1)Nc1cccc2c1C1CCCCN1C2=O (stereo not given)
[1]
  IC50: 1300 nM
[2]
  IC50: 4000 nM
[3]
  IC50: > 10000 nM
[11]
  IC50: ≥ 10000 nM

## O=C(Nc1cccc2c1C1CCCCN1C2=O)NC1CCCCC1 (stereo not given)
[1]
  IC50: > 10000 nM
[2]
  IC50: > 10000 nM
[3]
  IC50: > 10000 nM

## Cc1nc(NC(=O)Nc2cccc3c2C2CCCCN2C3=O)cs1 (stereo not given)
[2]
  IC50: 120 nM

## O=C(Nc1ncccn1)Nc1cccc2c1C1CCCCN1C2=O (stereo not given)
[2]
  IC50: 750 nM

## O=C(Nc1ccc(-c2ccccc2)cn1)Nc1cccc2c1C1CCCCN1C2=O (stereo not given)
[1]
  IC50: 4000 nM
[2]
  IC50: 140 nM
[3]
  IC50: > 10000 nM
[11]
  IC50: > 10000 nM

## O=C(Nc1ccncn1)Nc1cccc2c1C1CCCCN1C2=O (stereo not given)
[2]
  IC50: 380 nM
[3]
  IC50: > 10000 nM

## O=C(Nc1cc(-c2ccccc2)on1)Nc1cccc2c1C1CCCCN1C2=O (stereo not given)
[2]
  IC50: 270 nM

## O=C(Nc1cnccn1)Nc1cccc2c1C1CCCCN1C2=O (stereo not given)
MDA-MB-231 [27]
  Activity: Active
Huh-7 [28]
  Activity: Active
PC-3 [29]
  Activity: Active
HCT-116 [30]
  Activity: Active
HCT-116 [31]
  Activity: Active
NCI-H727 [32]
  Activity: Active
Caco-2 [33]
  Activity: Active

## O=C(Nc1cc2ccccc2cn1)Nc1cccc2c1C1CCCCN1C2=O (stereo not given)
NCI-H727 [4]
  IC50: 3000 nM
Huh-7 [5]
  IC50: 2000 nM
HCT-116 [6]
  IC50: 1000 nM
[1]
  IC50: 68 nM
[7]
  IC50: 4000 nM
MDA-MB-231 [8]
  IC50: 3000 nM
[2]
  IC50: 170 nM
Caco-2 [9]
  IC50: 1000 nM
PC-3 [10]
  IC50: 2000 nM
[3]
  IC50: > 10000 nM

## COc1cccnc1NC(=O)Nc1cccc2c1C1CCCCN1C2=O (stereo not given)
[1]
  IC50: 590 nM
[2]
  IC50: 1300 nM
[3]
  IC50: 8100 nM
[11]
  IC50: 2600 nM
